# In patent US11613545B2, “Macrocyclic compound serving as Wee1 inhibitor and applications thereof” (WUXI BIOCITY BIOPHARMACEUTICS CO., LTD., priority 2017, dated 2023):
# Biological target: T1, Wee1 (Homo sapiens, UniProt P30291)
# T1 construct: purchased Eurofins
# Assay: In vitro enzymatic inhibitory activity, Wee1 kinase (Eurofins, [γ-33P]-ATP filter assay)
# Format: biochemical
# Settings: 10 μM [γ-33P]-ATP, 40 min at room temperature
# Method: The experimental tests were conducted at Eurofins, and the results were provided by the company.
# After adding the mixed solution of Mg^2+ and ATP, the reaction started and the reaction solution was incubated at room temperature for 40 min. 3% phosphate buffer was added to stop the reaction. 10 μL of the reaction solution was filtered on a continuous filter P30, washed three times with 75 mM phosphate buffer, once with methanol, and 5 minutes each time. After drying, the value was read by scintillation counting method.
# T1 sequence (P30291 whole entry): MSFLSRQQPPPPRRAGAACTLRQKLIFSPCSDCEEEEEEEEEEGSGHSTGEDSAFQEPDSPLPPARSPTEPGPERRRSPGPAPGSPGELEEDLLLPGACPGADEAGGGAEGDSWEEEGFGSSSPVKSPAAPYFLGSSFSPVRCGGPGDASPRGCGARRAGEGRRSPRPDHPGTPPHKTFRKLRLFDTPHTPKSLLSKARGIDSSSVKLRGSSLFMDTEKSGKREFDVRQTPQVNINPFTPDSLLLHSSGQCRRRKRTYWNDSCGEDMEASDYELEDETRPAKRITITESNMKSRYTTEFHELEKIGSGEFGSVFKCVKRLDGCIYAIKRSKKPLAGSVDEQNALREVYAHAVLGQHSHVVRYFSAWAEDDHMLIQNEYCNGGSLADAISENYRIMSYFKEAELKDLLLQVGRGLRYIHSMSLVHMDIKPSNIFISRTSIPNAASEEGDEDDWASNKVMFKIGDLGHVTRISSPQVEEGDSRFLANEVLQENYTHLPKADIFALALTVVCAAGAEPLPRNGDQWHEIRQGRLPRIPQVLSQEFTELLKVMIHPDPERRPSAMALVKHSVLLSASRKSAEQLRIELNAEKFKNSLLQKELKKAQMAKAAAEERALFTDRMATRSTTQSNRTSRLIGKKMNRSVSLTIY
row,Structure (SMILES),IC50 [nM]
1,CC1(O)CC/C=C\Cn2c(=O)c3cnc(Nc4ccc(N5CCNCC5)cc4)nc3n2-c2cccc1n2 (centres unmarked) [Compound 6],46
2,CN1CCC2(CC1)CCN(c1ccc(Nc3ncc4c(=O)n5n(c4n3)-c3cccc(n3)C(C)(O)CC/C=C\C5)cc1)CC2 (centres unmarked) [Compound 7],54
3,CN1CCCN(c2ccc(Nc3ncc4c(=O)n5n(c4n3)-c3cccc(n3)C(C)(O)CC/C=C\C5)cc2)CC1 (centres unmarked) [Compound 10],49
4,CC1(O)CC/C=C\Cn2c(=O)c3cnc(Nc4ccc(N5CCCNCC5)cc4)nc3n2-c2cccc1n2 (centres unmarked) [Compound 11],102
5,C[C@@]1(O)CC/C=C\Cn2c(=O)c3cnc(Nc4ccccc4)nc3n2-c2cccc1n2 [Compound 12],59
6,C[C@]1(O)CC/C=C\Cn2c(=O)c3cnc(Nc4ccccc4)nc3n2-c2cccc1n2 [Compound 13],265
7,COc1cccc(Nc2ncc3c(=O)n4n(c3n2)-c2cccc(n2)[C@](C)(O)CC/C=C\C4)c1 [Compound 16],60
8,COc1cccc(Nc2ncc3c(=O)n4n(c3n2)-c2cccc(n2)[C@@](C)(O)CC/C=C\C4)c1 [Compound 17],366
9,CN(C)CCOc1ccc(Nc2ncc3c(=O)n4n(c3n2)-c2cccc(n2)[C@@](C)(O)CC/C=C\C4)cc1 [Compound 19],72
10,CN1CCC(c2ccc(Nc3ncc4c(=O)n5n(c4n3)-c3cccc(n3)[C@](C)(O)CC/C=C\C5)cc2)CC1 [Compound 20],173
11,CN1CCC(c2ccc(Nc3ncc4c(=O)n5n(c4n3)-c3cccc(n3)[C@@](C)(O)CC/C=C\C5)cc2)CC1 [Compound 21],280
12,CN1CC2CN(c3ccc(Nc4ncc5c(=O)n6n(c5n4)-c4cccc(n4)[C@](C)(O)CC/C=C\C6)cc3)CC2C1 (some centres unmarked) [Compound 24],57
13,CN1CC2CN(c3ccc(Nc4ncc5c(=O)n6n(c5n4)-c4cccc(n4)[C@@](C)(O)CC/C=C\C6)cc3)CC2C1 (some centres unmarked) [Compound 25],78
14,C[C@@]1(O)CC/C=C\Cn2c(=O)c3cnc(Nc4cccc(F)c4)nc3n2-c2cccc1n2 [Compound 28],79
15,C[C@]1(O)CC/C=C\Cn2c(=O)c3cnc(Nc4cccc(F)c4)nc3n2-c2cccc1n2 [Compound 29],444
16,C[C@@]1(O)CC/C=C\Cn2c(=O)c3cnc(Nc4ccc(F)cc4)nc3n2-c2cccc1n2 [Compound 30],67
17,C[C@]1(O)CC/C=C\Cn2c(=O)c3cnc(Nc4ccc(F)cc4)nc3n2-c2cccc1n2 [Compound 31],323
18,C[C@]1(O)CC/C=C\Cn2c(=O)c3cnc(Nc4ccc(N5CCOCC5)cc4)nc3n2-c2cccc1n2 [Compound 33],151
19,CN1CCN(c2cccc(Nc3ncc4c(=O)n5n(c4n3)-c3cccc(n3)[C@](C)(O)CC/C=C\C5)c2)CC1 [Compound 34],116
20,CN1CCN(c2cccc(Nc3ncc4c(=O)n5n(c4n3)-c3cccc(n3)[C@@](C)(O)CC/C=C\C5)c2)CC1 [Compound 35],276
21,CN(C)C1CCN(c2ccc(Nc3ncc4c(=O)n5n(c4n3)-c3cccc(n3)[C@](C)(O)CC/C=C\C5)cc2)CC1 [Compound 38],48
22,C[C@@]1(O)CC/C=C\Cn2c(=O)c3cnc(Nc4ccc(Cl)cc4)nc3n2-c2cccc1n2 [Compound 39],54
23,CN(C)CCOc1cccc(Nc2ncc3c(=O)n4n(c3n2)-c2cccc(n2)[C@@](C)(O)CC/C=C\C4)c1 [Compound 42],221

# Stronger by IC50, values ahead:
row,IC50 [nM],Structure (SMILES)
1,42,CC1(O)CC/C=C\Cn2c(=O)c3cnc(Nc4ccc(N5CCC(F)(F)CC5)cc4)nc3n2-c2cccc1n2 (centres unmarked) [Compound 3]
2,41,CN(C)C1CCN(c2ccc(Nc3ncc4c(=O)n5n(c4n3)-c3cccc(n3)C(C)(O)CC/C=C\C5)cc2)CC1 (centres unmarked) [Compound 9]
3,29,CN(C)CCOc1ccc(Nc2ncc3c(=O)n4n(c3n2)-c2cccc(n2)[C@](C)(O)CC/C=C\C4)cc1 [Compound 18]
4,16,CN1CCN(c2ccc(Nc3ncc4c(=O)n5n(c4n3)-c3cccc(n3)[C@](C)(O)CC/C=C\C5)cc2CO)CC1 [Compound 22]
5,29,COCc1cc(Nc2ncc3c(=O)n4n(c3n2)-c2cccc(n2)[C@](C)(O)CC/C=C\C4)ccc1N1CCN(C)CC1 [Compound 23]
6,30,CN1CCc2ccc(Nc3ncc4c(=O)n5n(c4n3)-c3cccc(n3)[C@](C)(O)CC/C=C\C5)cc2C1 [Compound 26]
7,37,CN1CCc2ccc(Nc3ncc4c(=O)n5n(c4n3)-c3cccc(n3)[C@@](C)(O)CC/C=C\C5)cc2C1 [Compound 27]
8,37,C[C@@]1(O)CC/C=C\Cn2c(=O)c3cnc(Nc4ccc(N5CCOCC5)cc4)nc3n2-c2cccc1n2 [Compound 32]
9,35,CN(C)CCOc1cccc(Nc2ncc3c(=O)n4n(c3n2)-c2cccc(n2)[C@](C)(O)CC/C=C\C4)c1 [Compound 36]
10,31,CN1CCCN(c2ccc(Nc3ncc4c(=O)n5n(c4n3)-c3cccc(n3)[C@](C)(O)CC/C=C\C5)cc2)CC1 [Compound 37]
11,35,C[C@@]1(O)CC/C=C\Cn2c(=O)c3cnc(Nc4ccc(OC5CC5)cc4)nc3n2-c2cccc1n2 [Compound 40]
12,16,C[C@@]1(O)CC/C=C\Cn2c(=O)c3cnc(Nc4ccc(N5CCC(F)(F)CC5)cc4)nc3n2-c2cccc1n2 [Compound 41]
